The results in this text go back to patent US4863902A, “Treatment of cancer” (Wakunaga Seiyaku Kabushiki Kaisha, priority 1985, dated 1989).

Experiment [1] concerns mouse ovarian tumor M5076. The experiment is described as follows: Tumor weight of solid tumor of mouse ovarian tumor in BDF1 mice. The experiment is classed as in vivo. The settings on record: for Tumor weight (day 1 = 100): Table 9, cisplatin 5 mg/Kg, hEGF, [Leu^21 ]-hEGF or hEGF-II 100 μg/Kg subcutaneous, average ± standard error. How it is done:
BDF1 male mice were employed. The feeding conditions were the same as in Experimental Example 1.
Mouse ovarian tumor M5076 was transplanted subcutaneously at the axialla of mouse in 1-2×10^6 cells per mouse. 12 days after transplantation, the size of tumor was measured according to the same method as in Experimental Example 1 (Colon 26) and the tumor weight was calculated.
The grouping operation on initiation of Experiments was conducted in the same manner as in Experimental Example 1. The compounds were administered in the same manner as in Experimental Example 9.
The experiment was carried out in the samme manner as in Experimental Examples 1, 7 and as in Experimental Example 17 for others.

The subject of experiment [2] is Colon adenocarcinoma 38 (mouse colon adenocarcinoma). The experiment is described as follows: Tumor weight of transplanted Colon adenocarcinoma 38 in C57BL/6 mice. In kind it is in vivo. The settings on record: for tumor growth inhibiting effect, same experiment as Experimental Example 19: used in place of 5-FU in combination with FGF; for antitumor effect of (a) + (b) (quantity not headed; method of Experimental Example 4): Table 21. How it is done: Colon adenocarcinoma 38 (mouse colon adenocarcinoma) was minced into pieces and about 0.1 to 0.2 ml thereof was transplanted subcutaneously on the right side of mouse abdomen by a cell transplanting needle (trocker). Eleven days after transplantation, the size of tumor, namely longer diameter (a mm) and shorter diameter (b mm) of tumor were measured and the tumor weight was calculated according to the formula shown below [Instruction 14 (NCI) 1980].
Tumor weight (mg)=ab^2 /2
In the Table, days indicate the experimental days with the day of compound administration being as the day 1, and the tumor weight immediately before administration of compound of day 1 is made 100. The respective values show the average value ± standard error of case numbers of 10 to 20, in the Table, the marks of (*), * and *** indicate the statistical significance difference of the combined administration group relative to the 5-FU single administration group (the definition of P is as defined above).

[3] abbreviates: Table 12, day 4 after compound administration, weight before administration = 100, Tegafur 400, 5-FU 150, Mitomycin-C 5, Cisplatin 5 mg/Kg, hIGF-II 50 μg/Kg subcutaneous, average ± standard error of 8-10 mice.
[4] abbreviates: Table 13, same method as Experimental Example 20 (day 4), Tegafur 400, Mitomycin-C 5, Adriamycin 10, Cisplatin 5 mg/Kg, Insulin 50 m μg/Kg subcutaneous.
Where [5] appears, read: Table 14, hTGFα 100 μg/10 ml/Kg with 5-FU, Tegafur, Mitomycin-C, Adriamycin or Cisplatin, as described for Table 12.
[6] abbreviates: Table 15, day 4 after compound administration, hTGFβ and hEGF 100 μg/Kg with each compound having antitumor action.
Where [7] appears, read: (a) Adriamycin, Mixed injection.
[8] abbreviates: (a) Adriamycin, Separate injection.
Setting [9] is: (a) Cisplatin, Separate injection.
Where [10] appears, read: (a) Tegafur, Separate injection.

Regarding `N.N.[Cl][Pt][Cl]` [Cisplatin, cisplatin], the “Tumor weight (day 1 = 100)” value in experiment [1] (day 2) is recorded as 126.4 ± 9.0; in experiment [1] (day 3), 125.49 ± 8.3; in experiment [1] (day 4), 136.9 ± 5.2; in experiment [1] (day 5) it was 143.6 ± 14.5; in experiment [1] (day 6), 192.0 ± 20.6. For the same compound, the “Tumor weight ratio(%)” value turned out to be 145.6 ± 9.1% in experiment [2] (setting [3]), 145.6 ± 9.1% in experiment [2] (setting [4]), 145.6 ± 9.1% in experiment [2] (setting [5]) and 139.8 ± 9.9% in experiment [2] (setting [6]). Besides, the “tumor growth inhibiting effect, same experiment as Experimental Example 19” value (“tumor growth inhibiting effect” below) in experiment [2] is “the same results”.
With `O=P1(N(CCCl)CCCl)NCCCO1` (stereo not shown) [Cyclophosphamide, cyclophosphamide], the “Tumor weight (day 1 = 100)” value in experiment [2] (Table 7, day 2, cyclophosphamide 200 mg/Kg, hEGF 100 μg/Kg subcutaneous on day 1 and day 3, average ± standard error of 8 mice) was 145.2 ± 18.2; in experiment [2] (Table 7, day 3, cyclophosphamide 200 mg/Kg, hEGF 100 μg/Kg subcutaneous on day 1 and day 3, average ± standard error of 8 mice), 147.6 ± 13.7; in experiment [2] (Table 7, day 4, cyclophosphamide 200 mg/Kg, hEGF 100 μg/Kg subcutaneous on day 1 and day 3, average ± standard error of 8 mice) it was 102.4 ± 8.6; in experiment [2] (Table 7, day 5, cyclophosphamide 200 mg/Kg, hEGF 100 μg/Kg subcutaneous on day 1 and day 3, average ± standard error of 8 mice), 92.2 ± 5.1; in experiment [2] (Table 7, day 6, cyclophosphamide 200 mg/Kg, hEGF 100 μg/Kg subcutaneous on day 1 and day 3, average ± standard error of 8 mice), 108.5 ± 19.6; in experiment [2] (Table 7, day 7, cyclophosphamide 200 mg/Kg, hEGF 100 μg/Kg subcutaneous on day 1 and day 3, average ± standard error of 8 mice), 110.9 ± 21.3. Also, in experiment [2] (setting [6]), the “Tumor weight ratio(%)” value worked out at 90.6 ± 7.6%. Further, the “tumor growth inhibiting effect” value in experiment [2] is on record as “the same results”.
For the compound `CO[C@@]12[C@H](COC(N)=O)C3=C(C(=O)C(C)=C(N)C3=O)N1C[C@@H]1N[C@@H]12` [MMC, mitomycin C], the “Tumor weight (day 1 = 100)” value in experiment [2] (Table 8, day 2, MMC 5 mg/Kg, hEGF, hEGF-II or [Leu^21 ]-hEGF 100 μg/Kg subcutaneous on day 1 and day 5, average ± standard error of 6 mice) was 130.8 ± 8.5; in experiment [2] (Table 8, day 3, MMC 5 mg/Kg, hEGF, hEGF-II or [Leu^21 ]-hEGF 100 μg/Kg subcutaneous on day 1 and day 5, average ± standard error of 6 mice), 106.1 ± 9.4; in experiment [2] (Table 8, day 4, MMC 5 mg/Kg, hEGF, hEGF-II or [Leu^21 ]-hEGF 100 μg/Kg subcutaneous on day 1 and day 5, average ± standard error of 6 mice), 95.8 ± 5.5; in experiment [2] (Table 8, day 5, MMC 5 mg/Kg, hEGF, hEGF-II or [Leu^21 ]-hEGF 100 μg/Kg subcutaneous on day 1 and day 5, average ± standard error of 6 mice) it was 98.6 ± 3.9; in experiment [2] (Table 8, day 6, MMC 5 mg/Kg, hEGF, hEGF-II or [Leu^21 ]-hEGF 100 μg/Kg subcutaneous on day 1 and day 5, average ± standard error of 6 mice), 160.7 ± 10.9; in experiment [2] (Table 8, day 7, MMC 5 mg/Kg, hEGF, hEGF-II or [Leu^21 ]-hEGF 100 μg/Kg subcutaneous on day 1 and day 5, average ± standard error of 6 mice), 150.8 ± 15.9. Moreover, the “Tumor weight (day 1 = 100)” value worked out at 263.6 ± 30.8 in experiment [2] (Table 8, day 8, MMC 5 mg/Kg, hEGF, hEGF-II or [Leu^21 ]-hEGF 100 μg/Kg subcutaneous on day 1 and day 5, average ± standard error of 6 mice); 308.7 ± 54.0 in experiment [2] (Table 8, day 9, MMC 5 mg/Kg, hEGF, hEGF-II or [Leu^21 ]-hEGF 100 μg/Kg subcutaneous on day 1 and day 5, average ± standard error of 6 mice). Also, the “Tumor weight ratio(%)” value was 95.8 ± 5.5% in experiment [2] (setting [3]), 95.8 ± 5.5% in experiment [2] (setting [4]), 95.8 ± 5.5% in experiment [2] (setting [5]) and 101.1 ± 8.3% in experiment [2] (setting [6]). The “tumor growth inhibiting effect” value in experiment [2] is listed as “the same results”.
`O=c1[nH]c(=O)n(C2CCCO2)cc1F` (stereo not shown) [Tegafur, 1-(2-tetrahydrofuryl)-5-fluorouracil]: the “Tumor weight (day 1 = 100)” value came out at 89.0 ± 10.5 in experiment [2] (Table 6, day 2, Tegafur 400 mg/Kg, hEGF 100 μg/Kg subcutaneous on day 1 and day 4, average ± standard error of 7 mice); 102.1 ± 13.5 in experiment [2] (Table 6, day 3, Tegafur 400 mg/Kg, hEGF 100 μg/Kg subcutaneous on day 1 and day 4, average ± standard error of 7 mice); 105.5 ± 18.4 in experiment [2] (Table 6, day 4, Tegafur 400 mg/Kg, hEGF 100 μg/Kg subcutaneous on day 1 and day 4, average ± standard error of 7 mice); 104.2 ± 22.6 in experiment [2] (Table 6, day 5, Tegafur 400 mg/Kg, hEGF 100 μg/Kg subcutaneous on day 1 and day 4, average ± standard error of 7 mice); 94.5 ± 16.9 in experiment [2] (Table 6, day 6, Tegafur 400 mg/Kg, hEGF 100 μg/Kg subcutaneous on day 1 and day 4, average ± standard error of 7 mice); 131.4 ± 23.3 in experiment [2] (Table 6, day 7, Tegafur 400 mg/Kg, hEGF 100 μg/Kg subcutaneous on day 1 and day 4, average ± standard error of 7 mice). For the same compound, the “Tumor weight (day 1 = 100)” value in experiment [2] (Table 6, day 8, Tegafur 400 mg/Kg, hEGF 100 μg/Kg subcutaneous on day 1 and day 4, average ± standard error of 7 mice) is reported as 143.7 ± 20.6. Moreover, the “Tumor weight ratio(%)” value in experiment [2] (setting [3]) worked out at 95.2 ± 15.4%; in experiment [2] (setting [4]), 95.2 ± 15.4%; in experiment [2] (setting [5]) it was 95.2 ± 15.4%; in experiment [2] (setting [6]) it was 118.0 ± 9.8%; in experiment [2] (Table 16, day 4 after administration, Tegafur in place of 5-FU, FGF as in Experimental Example 19) it was 103.1 ± 13.1%; in experiment [2] (Table 17, day 4 after compound administration, Tegafur 400 mg/Kg, hEGF, hEGF-II, [Leu^21 ]-hEGF each 100 μg/Kg, RA 30 mg/Kg subcutaneous), 90.6 ± 11.5%.
For the compound Insulin, the “antitumor effect of (a) + (b) (quantity not headed; method of Experimental Example 4)” value in experiment [2] (setting [7]) was determined as 110.2; in experiment [2] (setting [8]), 121.1; in experiment [2] ((a) Cisplatin, Mixed injection), 105.6; in experiment [2] (setting [9]), 110.3; in experiment [2] ((a) Tegafur, Mixed injection) it was 58.9; in experiment [2] (setting [10]), 48.1.
As for “TGFα: human transforming growth factor α”, the “antitumor effect of (a) + (b) (quantity not headed; method of Experimental Example 4)” value in experiment [2] (setting [7]) worked out at 98.4; in experiment [2] (setting [8]), 92.6; in experiment [2] ((a) Cisplatin, Mixed injection), 80.4; in experiment [2] (setting [9]), 80.1; in experiment [2] ((a) Tegafur, Mixed injection), 34.3; in experiment [2] (setting [10]) it was 40.6.
As for “[Leu^21 ]-hEGF: derivative of hEGF with the 21st methionine from the N-terminal substituted with leucine (NSDSECPLSHDGYCLHDGVCLYIEALDKYACNCVVGYIGERCQYRDLKWWELR; not fully specified; Epidermal growth factor; UniProt P01133 971-1023, looked up, variant M21L)”, in experiment [1] (used together with mytomycin C in place of cisplatin), the “antitumor effect potentiation, same experiment as Experimental Example 17” value is recorded as “the same results”. The “antitumor effect of (a) + (b) (quantity not headed; method of Experimental Example 4)” value was found to be 99.6 in experiment [2] (setting [7]); 97.8 in experiment [2] (setting [8]); 90.4 in experiment [2] ((a) Cisplatin, Mixed injection); 100.1 in experiment [2] (setting [9]); 48.1 in experiment [2] ((a) Tegafur, Mixed injection); 50.3 in experiment [2] (setting [10]). Besides, the “tumor cell growth inhibition, same experiment as Experimental Example 4” value in experiment [2] (used in place of hEGF in combination with 5-FU) was “the same results”. Besides, the “tumor cell growth inhibition, same experiment as Experimental Example 14” value in experiment [2] (used in place of hEGF in combination with Tegafur) is on record as “the same results”. Besides, in experiment [2] (used in place of hEGF in combination with cisplatin), the “antitumor action potentiating effect, same experiment as Experimental Example 9” value was “the same results”. In addition, in experiment [2] (used in place of hEGF in combination with cyclophosphamide), the “tumor cell growth inhibiting effect, same experiment as Experimental Example 15” value is “the same results”.
